Values belong to the sequence of their own block, whether it stands above or below them.
Target: T1, MyD88^TIR (Homo sapiens, UniProt Q99836)
T1 construct: MyD88 (residues 148–296); 6xHis; made in house; host or cells: E. coli BL21 (DE3)
Test: T‐Surf phage library (P8 and P3) selection against MyD88^TIR, four rounds, NGS read counts
Format: binding
Details: for P8_MyD88 Rank (after) / P8_MyD88 Rank (before): P8 library; for Population: P8_MyD88 pool: P8 T-Surf phage library, 4th round of selection against MyD88 TIR, share of NGS reads; for P3_MyD88 Rank (after) / P3_MyD88 Rank (before): P3 library
Experimental: T‐Surf libraries were screened against the immobilized TIR domains of two major human TLR adaptor proteins, MAL^TIR and MyD88^TIR, allowing cross‐species selection of TIR‐binding motifs with 190 946 TIR‐derived peptides in a single binding assay (Scheme 1). Enriched phage pools from the fourth round of selection were analyzed using NGS after barcoding the peptide‐coding regions of the phage pools.
Phage display screening was performed by coating two wells of a 96‐well plate (Maxisorp, Thermo Fisher Scientific) with 100 µL of 5 µg mL^−1 TIR domains overnight; then, the coated wells were blocked with 200 µL of blocking buffer (0.2% BSA in PBS) and set aside for 1 h at 4 °C with gentle shaking. Next, 100 µL of the phage library was added to the wells and incubated for 1 h at room temperature (RT; 20 – 22 °C) with gentle shaking. The plate was washed four times with PBS containing 0.5% Tween‐20; the bound phages were eluted by adding 100 µL of 100 mM HCl to each well. The elute was neutralized with 10 µL of 1.0 M Tris‐HCl (pH 11.0). E. coli TG1 cells were grown to the log phase (A600 = ≈0.6), and 1 mL of the culture was incubated with 100 µL of the eluted phages for 30 min at 37 °C, with shaking at 200 rpm. Next, 1 µL of M13KO7 helper phages was added, followed by incubation for 45 min at 37 °C, with shaking. Subsequently, the cells were transferred to 25 mL of 2× yeast extract tryptone/carbenicillin/kanamycin medium and incubated overnight at 37 °C with shaking at 200 rpm. The amplified phages were precipitated with 20% PEG‐8000/2.5 M NaCl to be used for the next round of selection.
The naïve T‐Surf libraries in P8 and P3 and the enriched phage pools after four rounds were barcoded for NGS as previously described.^[ [59] ^] Briefly, 5 µL of the phage pool was used as a template for 20 cycles of a 50 µL PCR reaction using […] each of forward and reverse barcoded primers and PrimeSTAR Max DNA Polymerase. The PCR products were purified using Expin Gel SV (GeneAll). The NGS samples were quantified using qPCR, following the qPCR Quantification Protocol Guide (KAPA Library Quantification kits for Illumina Sequencing Platform), and qualified using the TapeStation High Sensitivity D1000 ScreenTape (Agilent Technologies). The indexed libraries were further sequenced by Macrogen (Seoul, Republic of Korea) using the NovaSeq platform (Illumina) with 100 bp paired‐end reads. The reads were demultiplexed by barcodes and filtered for an average Phred quality score of at least 30, followed by trimming the flanking consensus sequences using Cutadapt (version 2.3). Peptide sequence populations were analyzed according to the read counts.

[1] = P8_MyD88: rank by NGS read count after grouping
[2] = P8_MyD88: rank by NGS read count before grouping
[3] = P8_MyD88: rank by count after grouping
[4] = P8_MyD88: rank by count before grouping
[5] = selection against MyD88, rank by count after grouping
[6] = selection against MyD88, rank by count before grouping
[7] = selection against MyD88, rank after grouping
[8] = selection against MyD88, rank before grouping
[9] = 4R selection against MyD88, rank after grouping
[10] = 4R selection against MyD88, rank before grouping
[11] = P3_MyD88: rank by count after grouping
[12] = P3_MyD88: rank by count before grouping

T1 sequence (Q99836 148-296): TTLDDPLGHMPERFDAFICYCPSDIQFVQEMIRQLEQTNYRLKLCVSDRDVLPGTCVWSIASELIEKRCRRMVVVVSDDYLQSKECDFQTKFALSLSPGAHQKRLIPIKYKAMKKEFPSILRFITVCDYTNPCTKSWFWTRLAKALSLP

Sequence: DPQVPEWFYNRLFCQL
Rank (after) [1]: 959
Rank (before) [2]: 2651

Sequence: DPQVRDWFYERAVSLF
Rank (after) [3]: 452
Rank (before) [4]: 2660

Sequence: DPQVRVWFYERLVSLF
P8_MyD88 Rank (after) [5]: 755
P8_MyD88 Rank (before) [6]: 2659

Sequence: DPRDLAWFYEVLLSRF
P8_MyD88 Rank (after) [9]: 657
P8_MyD88 Rank (before) [10]: 2618

Sequence: DQHLDLPRGKAIKPELLG
Rank (after) [11]: 475
Rank (before) [12]: 2066

Sequence: DQHRDLPRGKAIKPEILG
Rank (after) [11]: 168
Rank (before) [12]: 2067

Sequence: DQQDLDWFYERLVSVF
P8_MyD88 Rank (after) [7]: 505
P8_MyD88 Rank (before) [8]: 3051

Sequence: DRQDLVWPYERLVSLL
P8_MyD88 Rank (after) [5]: 698
P8_MyD88 Rank (before) [6]: 2599

Sequence: DSHESEIIKEIVDTIV
Rank (after) [11]: 163
Rank (before) [12]: 967

Sequence: DSLFWDRLLPNLEGPAG
P8_MyD88 Rank (after) [9]: 645
P8_MyD88 Rank (before) [10]: 3104

Sequence: DSLIWDRLLYSIKVTE
P8_MyD88 Rank (after) [5]: 737
P8_MyD88 Rank (before) [6]: 3124

Sequence: DSVCLDRLLYSLHVTE
P8_MyD88 Rank (after) [9]: 582
P8_MyD88 Rank (before) [10]: 3130

Sequence: DSWTSAALYEALHALL
Rank (after) [3]: 156
Rank (before) [4]: 172
Population: 0.00809%

Sequence: DTKLKKGESIAPALMR
P3_MyD88 Rank (after) [5]: 704
P3_MyD88 Rank (before) [6]: 2101

Sequence: DTKLKKGESIAPERLP
Rank (after) [11]: 116
Rank (before) [12]: 973

Sequence: DTKLKKGRKHCAGTAA
Rank (after) [11]: 454
Rank (before) [12]: 2099

Sequence: DVLYWALTEAGIRVFR
Rank (after) [3]: 119
Rank (before) [4]: 128
Population: 0.015%

Sequence: DVVCDYLLPNLEGPAG
P8_MyD88 Rank (after) [9]: 606
P8_MyD88 Rank (before) [10]: 2555

Now from value to sequence:

P8_MyD88 Rank (after) [7]: 512
P8_MyD88 Rank (before) [8]: 2642
Sequence: DPQYRDWFYERLVSLP

Rank (after) [1]: 996
Rank (before) [2]: 3141
Sequence: DRSIWDRLLYSLHVTE

P8_MyD88 Rank (after) [7]: 545
P8_MyD88 Rank (before) [8]: 3073
Sequence: DRVWDYLLPNLEGQAG

Rank (after) [3]: 166
Rank (before) [4]: 185
Population: 0.00694%
Sequence: DSDPGSDLLIKIWAAL

P8_MyD88 Rank (after) [9]: 654
P8_MyD88 Rank (before) [10]: 3075
Sequence: DSFFWDRLLYILHVTE

Rank (after) [1]: 970
Rank (before) [2]: 3074
Sequence: DSFFWGRLLYSLHVTE

Population: 0.00732%
Sequence: DSLFWDRLLYSL

P8_MyD88 Rank (after) (selection against MyD88 TIR, rank by count after grouping): 219
P8_MyD88 Rank (before) (selection against MyD88 TIR, rank by count before grouping): 355
Sequence: DSLFWDRLLYSLHVT

Population: 0.00732%
Sequence: DSLFWDRLLYSLHVTD

Rank (after) [1]: 933
Rank (before) [2]: 3097
Sequence: DSLFWDRLLYSLQFTE

P8_MyD88 Rank (after) [9]: 621
P8_MyD88 Rank (before) [10]: 2497
Sequence: DSQDLDWLYERLVSLL

P3_MyD88 Rank (after) [5]: 736
P3_MyD88 Rank (before) [6]: 2071
Sequence: DSQSSLLKGEADLVGQ

Rank (after) [1]: 982
Rank (before) [2]: 2496
Sequence: DSQVLDWFYERLVSLL

Rank (after) [3]: 466
Rank (before) [4]: 3127
Sequence: DSVFWDLLRYSLHVTE

Rank (after) [11]: 450
Rank (before) [12]: 2091
Sequence: DTALTNSGFHTLRDND

Rank (after) [11]: 401
Rank (before) [12]: 2092
Sequence: DTILEKVQSIAPELLR

P3_MyD88 Rank (after) [9]: 664
P3_MyD88 Rank (before) [10]: 2090
Sequence: DTKLKEGDCVPPELLR

Rank (after) [11]: 185
Rank (before) [12]: 972
Sequence: DTKLKKGESIAPELVL

P8_MyD88 Rank (after) [7]: 578
P8_MyD88 Rank (before) [8]: 2557
Sequence: DVLYWALTEAGLRGFR

Rank (after) [3]: 182
Rank (before) [4]: 216
Sequence: DVLYYALIDAGIRVFR

Rank (after) [3]: 432
Rank (before) [4]: 2483
Sequence: DWAWDYLLPNLEGSAG

P8_MyD88 Rank (after) [5]: 745
P8_MyD88 Rank (before) [6]: 2487
Sequence: DWEWDYRLPNLEGPAC
